Reference: US20160175225A1, “Peptides and Their Use in the Treatment of Skin” (AVON PRODUCTS, INC., priority 2014, published 2016)

Columns and labels:
[1] = tested on: Human dermal fibroblast cells; experiment: Pro-collagen I secretion by human dermal fibroblasts (HTRF human pro-collagen I kit); type: cell-based; conditions: percent change relative to vehicle control, 48 h
Method: (§1) Human dermal fibroblast cells were grown in a 96 well plate in DMEM media (available from Corning, N.Y.) supplemented with 10% Fetal Bovine Serum (FBS) and L-glutamine (0.07×10^5 cells/plate). After reaching about 75% confluence, cells were transferred into DMEM media without FBS and incubated for 4-6 hours. Next, cells were treated with a peptide at 0.00001%, 0.0001%, 0.001% final concentration in DMEM media without FBS for 48 h. After treatment the media were collected, and cell viability was measured using MTT. Amount of collagen secreted was tested in the media using HTRF human pro-collagen I kit (available from Cisbio Inc., Bedford, Mass.). Amount of secreted Hyaluronic Acid (HA) was tested in the media using HA Elisa kit (available from Corgenix, Broomfield, Colo.).
(§2) Results are summarized in Table 5 below as percent change of pro-collagen I and/or HA production relative to vehicle control using the following keys with the peptide concentration provided in parentheses: […]

[2] = tested on: Human dermal fibroblast cells; experiment: Hyaluronic acid (HA) secretion by human dermal fibroblasts (HA Elisa kit); type: cell-based; conditions: percent change relative to vehicle control, 48 h
Method: as §1, §2

[3] = concentration not given (tested at 0.00001%, 0.0001%, 0.001%)

Substance	Increase in HA Production ([2]; peptide concentration 0.001%)	Increase in Pro-Collagen I Production [1, 3]	Increase in HA Production [2, 3]	further results
TAKDGAP [Thr-Ala-Lys-Asp-Gly-Ala-Pro, peptide derived from CTGF]	++ (0.001%) (++:50-90%)	–	–	Increase in Pro-Collagen I Production ([1]; peptide concentration 0.00001%): + (0.00001%) (+: 10-30%)
RTPKISKPIKFELSG [Arg-Thr-Pro-Lys-Ile-Ser-Lys-Pro-Ile-Lys-Phe-Glu-Leu-Ser-Gly, peptide derived from CTGF]	+ (0.001%) (+: 20-50%)	0 (0: <10%)	–	–
EASAEPE	–	0 (0: <10%)	0 (0: <20%)	–
QILSKLRL [Gln-Ile-Leu-Ser-Lys-Leu-Arg-Leu, peptide derived from GDF11 and TGFβ]	–	–	0 (0: <20%)	Increase in Pro-Collagen I Production ([1]; peptide concentration 0.001%): + (0.001%) (+: 10-30%)
NRNV: peptide sequence NRNV, origin PDGF, tested in Table 5	–	0 (0: <10%)	0 (0: <20%)	–
GDALQPE	–	0 (0: <10%)	0 (0: <20%)	–
RKIE: peptide sequence RKIE, origin PDGF, tested in Table 5	–	0 (0: <10%)	0 (0: <20%)	–
Met-Val-Val (MVV) [peptide derived from GDF11]	–	0 (0: <10%)	–	Increase in HA Production ([2]; peptide concentration 0.0001%): + (0.0001%) (+: 20-50%)
Leu-Arg-Leu-Lys (LRLK) [peptide derived from GDF11 and TGFβ]	+ (0.001%) (+: 20-50%)	0 (0: <10%)	–	–
Ala-Glu-Cys-Lys (AECK) [peptide derived from PDGF]	+++ (0.001%) (+++:90-150%)	0 (0: <10%)	–	–
QPED: peptide sequence QPED, origin GDF11, tested in Table 5	–	0 (0: <10%)	0 (0: <20%)	–
IFGGTVYRS [Ile-Phe-Gly-Gly-Thr-Val-Tyr-Arg-Ser, peptide derived from CTGF]	++ (0.001%) (++:50-90%)	–	–	Increase in Pro-Collagen I Production ([1]; peptide concentration 0.001%): + (0.001%) (+: 10-30%)
LENTKRS	–	0 (0: <10%)	0 (0: <20%)	–
